The text below walks through data of PMC2631660 (Bioorganic & medicinal chemistry, 2008).

In one assay the target is hGSTP1-1 (Homo sapiens, UniProt P09211). The assay can be described thus: Specific activity / enzyme kinetics of GST towards compounds in presence of GSH. It counts as biochemical. As to conditions: compound 50 µM, 37 °C.
Another assay addresses T1, hGSTA1-1 (Homo sapiens, UniProt P08263).
T1 sequence (P08263 1-222): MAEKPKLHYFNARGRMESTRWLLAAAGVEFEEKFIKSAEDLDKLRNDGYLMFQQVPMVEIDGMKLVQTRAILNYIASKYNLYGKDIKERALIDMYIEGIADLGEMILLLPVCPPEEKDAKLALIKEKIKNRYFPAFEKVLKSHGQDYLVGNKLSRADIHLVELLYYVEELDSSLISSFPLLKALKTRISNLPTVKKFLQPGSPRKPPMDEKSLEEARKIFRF
The assay is described as above. It counts as biochemical. As to conditions: compound 50 µM, 37 °C.

A further assay has as its target T2, hGSTM1-1 (Homo sapiens, UniProt P09488).
T2 sequence (P09488 2-218 limits assumed): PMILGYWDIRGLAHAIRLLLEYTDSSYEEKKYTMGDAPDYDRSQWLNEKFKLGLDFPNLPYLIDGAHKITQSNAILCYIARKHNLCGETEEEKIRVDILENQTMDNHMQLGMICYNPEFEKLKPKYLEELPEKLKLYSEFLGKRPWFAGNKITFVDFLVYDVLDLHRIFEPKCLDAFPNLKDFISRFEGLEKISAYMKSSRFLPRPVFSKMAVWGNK
Described as above. The following applies: compound 50 µM, 37 °C. It counts as biochemical.

The subject of a further assay is HL-60 cells. Briefly: MTT cell proliferation assay. It counts as cell-based. The following applies: Homo sapiens, HL-60, 72 h, read-out: IC50 anti-proliferative activity. (In general: Formazan colour is commonly taken as a measure of viable cells.)

Sequence of hGSTP1-1 (P09211 2-210 limits assumed): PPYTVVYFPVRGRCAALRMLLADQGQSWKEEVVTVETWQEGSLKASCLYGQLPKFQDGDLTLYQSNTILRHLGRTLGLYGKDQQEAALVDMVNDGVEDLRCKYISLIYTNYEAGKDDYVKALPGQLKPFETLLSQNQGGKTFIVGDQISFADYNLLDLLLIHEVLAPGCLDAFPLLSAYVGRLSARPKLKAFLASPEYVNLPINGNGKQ

Consider `CCOC(=O)N1CCN(/[N+]([O-])=N/Oc2ccc([N+](=O)[O-])cc2[N+](=O)[O-])CC1C` (stereo not shown) [3a, O^2-(2,4-Dinitrophenyl) 1-[(4-Ethoxycarbonyl)-3-methylpiperazin-1-yl]diazen-1-ium-1,2-diolate], for which, at hGSTP1-1, the GSTP1-1 specific activity was 1.15 µmol/mg/min. Moreover, the GSTA1-1 specific activity on hGSTA1-1 came to 55.5 µmol/mg/min. For the same molecule, the GSTM1-1 specific activity on hGSTM1-1 was 112 µmol/mg/min.

Take `CCOC(=O)N1CCN(/[N+]([O-])=N/Oc2ccc([N+](=O)[O-])cc2[N+](=O)[O-])C(C)C1` (stereo not shown) [3b, O^2-(2,4-Dinitrophenyl) 1-[(4-Ethoxycarbonyl)-2-methylpiperazin-1-yl]diazen-1-ium-1,2-diolate]: at hGSTP1-1, the GSTP1-1 specific activity was 0.88 µmol/mg/min. The GSTA1-1 specific activity on hGSTA1-1 is 47.0 µmol/mg/min. Also, the GSTM1-1 specific activity at hGSTM1-1 worked out at 110 µmol/mg/min.

For the molecule `CCOC(=O)N1C(C)CN(/[N+]([O-])=N/Oc2ccc([N+](=O)[O-])cc2[N+](=O)[O-])CC1C` (stereo not shown) [3c, O^2-(2,4-Dinitrophenyl) 1-[(4-Ethoxycarbonyl)-3,5-dimethylpiperazin-1-yl]diazen-1-ium-1,2-diolate], the GSTP1-1 specific activity on hGSTP1-1 turned out to be 1.17 µmol/mg/min. For the same molecule, the GSTA1-1 specific activity at hGSTA1-1 worked out at 70.3 µmol/mg/min. At hGSTM1-1, the GSTM1-1 specific activity was determined as 172 µmol/mg/min.

Turning to `CCOC(=O)N1CC(C)N(/[N+]([O-])=N/Oc2ccc([N+](=O)[O-])cc2[N+](=O)[O-])CC1C` (stereo not shown) [3d, O^2-(2,4-Dinitrophenyl) 1-[(4-Ethoxycarbonyl)-2,5-dimethylpiperazin-1-yl]diazen-1-ium-1,2-diolate], the GSTP1-1 specific activity at hGSTP1-1 was 0.14 µmol/mg/min. Moreover, the GSTA1-1 specific activity at hGSTA1-1 amounted to 17.6 µmol/mg/min. Besides, the GSTM1-1 specific activity at hGSTM1-1 is 49 µmol/mg/min.

Regarding `CCOC(=O)N1CCCN(/[N+]([O-])=N/Oc2ccc([N+](=O)[O-])cc2[N+](=O)[O-])CC1` [4a], at hGSTP1-1, the GSTP1-1 specific activity worked out at 0.16 µmol/mg/min. The GSTA1-1 specific activity on hGSTA1-1 is 16.8 µmol/mg/min. On hGSTM1-1, the GSTM1-1 specific activity was 38 µmol/mg/min.

Consider `COC(=O)N1CCN(/[N+]([O-])=N/Oc2ccc([N+](=O)[O-])cc2[N+](=O)[O-])CC1` [4b], for which the GSTP1-1 specific activity on hGSTP1-1 worked out at 0.98 µmol/mg/min. Moreover, the GSTA1-1 specific activity at hGSTA1-1 stood at 45.1 µmol/mg/min. Besides, at hGSTM1-1, the GSTM1-1 specific activity was 102 µmol/mg/min.

With `CCCOC(=O)N1CCN(/[N+]([O-])=N/Oc2ccc([N+](=O)[O-])cc2[N+](=O)[O-])CC1` [4c], the GSTP1-1 specific activity at hGSTP1-1 is 1.2 µmol/mg/min. Further, at hGSTA1-1, the GSTA1-1 specific activity amounted to 59.0 µmol/mg/min. Besides, at hGSTM1-1, the GSTM1-1 specific activity was determined as 126.3 µmol/mg/min.

The IC50 is the concentration that inhibits the measured activity by half. Consider `CCOC(=O)N1CCN(/[N+]([O-])=N/Oc2ccc([N+](=O)[O-])cc2[N+](=O)[O-])CC1` [JS-K, O^2-(2,4-dinitrophenyl) 1-[(4-ethoxycarbonyl)piperazin-1-yl]diazen-1-ium-1,2-diolate], for which, on hGSTP1-1, the GSTP1-1 specific activity amounted to 1.36 µmol/mg/min. In addition, the GSTA1-1 specific activity at hGSTA1-1 turned out to be 66.3 µmol/mg/min. On hGSTM1-1, the GSTM1-1 specific activity came to 126 µmol/mg/min. Moreover, in the assay with HL-60 cells, the half-inhibitory concentration (IC50) was 200 to 500 nM.
